According to patent US8580795B2, “Heterocyclic compounds as phosphodiesterase inhibitors” (Orchid Chemicals & Pharmaceuticals Limited, priority 2009, dated 2013):

Assays:
TNF-α [1] = assay: In vitro measurement of TNF-α production in LPS-stimulated human PBMC (ELISA); assay type: cell-based; details: 100 nM compound, LPS 1 μg/mL, 18 h, NA: Not active
Experimental: Biological Activity In Vitro Measurement of Tumor Necrosis Factor Alpha (TNF-α):
This assay determines the effect of test compounds on the production of TNF-α in human Peripheral Blood Mononuclear Cells (PBMC). Compounds were tested for their ability to inhibit the activity of TNF α in human PBMC. PBMC were isolated from blood (of healthy volunteers) using BD Vacutainer CPT™ (Cell preparation tube, BD Bio Science) and suspended in RPMI (Rosewell park memorial institute) medium (Physiol. Res. 2003, 52, 593-598). The test compounds were pre-incubated with PBMC (0.5 million/incubation well) for 15 minutes at 37° C. and then stimulated with Lipopolysaccharide (Escherichia coli: B4; 1 μg/mL) for 18 h at 37° C. in 5% CO2. The levels of TNF-α in the cell culture medium were estimated using enzyme-linked immunosorbent assay performed in a 96 well format as per the procedure of the manufacturer (Cayman Chemical, Ann Arbor, USA).

[2] = target: human PDE4B enzyme (PDE4B2) (Homo sapiens, UniProt Q07343); assay: Phosphodiesterase 4 screening assay (SPA, [3H]-cAMP); assay type: biochemical; details: 100 nM compound; 0.5 μM cAMP
Experimental: Phosphodiesterase 4 Screening Assay:
PDE4 (Phosphodiesterase type IV) enzymes convert cyclic AMP (cAMP) into AMP. The assay is performed to determine the effect of test compounds on the inhibition of purified human PDE4B enzyme.
The assay involves the detection of the Tritiated AMP (product) using SPA beads known as yittrium silicate. The linear AMP bind preferentially to SPA yittrium silicate beads compared to cyclic nucleotides in the presence of zinc sulphate. The binding of the radiolabelled product to the bead brings the isotope into close proximity to allow radiation from the tritium to excite the scintillant within the bead to emit light. The unbound radiolabel is not close enough to allow this energy transfer and the light emitted due to the binding of tritiated AMP is detected as cpm (counts per minute).
PDE Activity (SPA Based Assay Protocol):
PDE4B activity was inhibited by the compounds according to the invention in a modified SPA (scintillation proximity assay) test, supplied by GE Healthcare Life Sciences (see procedural instructions “Phosphodiesterase [^3H]-cAMP SPA enzyme assay, code TRKQ 7090”), carried out in 96-well microtitre plates. The test volume is 100 μL and contains 50 mM Tris buffer (pH 7.4), 8.3 mM Mg^2+, in the presence of inhibitor or test compound, and containing PDE4B2 enzyme (sufficient to ensure that 10-20% of the cAMP is converted, under the said experimental conditions). […] After a pre-incubation of 5 minutes at 37° C., the reaction is started by adding the substrate (cAMP; 0.5 μM cAMP, including about 50,000 cpm of [^3H]-cAMP) and the assays are incubated for a further 10 minutes; after that, they are stopped by adding SPA beads containing 18 mM ZnSO4 (50 μl). After the beads have been sedimented (>30 minutes), the microtitre plates are analyzed in a Microplate luminescence detection device (TopCount* NXT; PerkinElmer Life Sciences). Where, the signal in the absence of enzyme is defined as the background. 100% activity was defined as the signal detected in the presence of enzyme and DMSO with the background subtracted. The corresponding IC50 values of the compounds for the inhibition of PDE4B2 activity are determined from the concentration-effect curves by means of non-linear regression fit of the standard 4-parameter/multiple binding sites equation from a eight- to ten-point titration. (Catherine B. et al. Anal. Biochem., 1999, 275(2), pp. 148-155, David M. E. Biochem. Pharmacol., 1999, 57, pp. 965-973)

TNF-α [3] = assay: LPS induced sepsis for measurement of TNF-α inhibition in mice; assay type: in vivo, Female Swiss albino mice; details: 10 mg/kg oral, 30 min before LPS i.p., serum 90 min after LPS
Experimental: LPS Induced Sepsis for Measurement of TNF-α Inhibition in Mice:
The LPS induced sepsis model in mice was performed as described by Les sekut et al (J Lab Clin Med 1994; 124, 813-20). Female Swiss albino mice were selected and the body weights were equivalent within each group. The mice were fasted for 20 h with free access to water. The mice were dosed orally with the test compound suspended in vehicle containing 0.5% Tween 80 in 0.25% Carboxy-methylcellulose sodium salt. The control mice were administered the vehicle alone. After 30 minutes of oral dosing, mice were injected with 500 μg of Lipopolysaccharide (Escherichia coli, LPS: B4 from Sigma) in phosphate buffer saline solution into the intraperitoneal cavity of the mice. After 90 minutes of LPS administration mice were bled via retro-orbital sinus puncture. Blood samples were stored overnight at 4° C. Serum samples were collected by centrifuging the samples at 4000 rpm for 15 minutes at 4° C. Immediately the serum samples were analysed for TNF-α levels using commercially available mouse TNF-α ELISA kit (Amersham Biosciences) and assay was performed by the manufacturer instruction.

LPS induced neutrophilia = LPS induced neutrophilia model for asthma and COPD; assay type: in vivo, Male Sprague Dawley rats; details: rats, BAL 6 h after LPS exposure
Experimental: LPS Induced Neutrophilia Model for Asthma and COPD:
LPS induced neutrophilia in Sprague Dawley rats was performed using the protocol described in Pulm Pharmacol & Ther 17,133-140, 2004. Male Sprague. Dawley rats were acclimatized to laboratory conditions five to seven days prior to the start of the experiment. They were randomly distributed to various groups based on body weight. Except normal group all the animals were exposed to LPS 100 μg/ml for 40 minutes. The rats were dosed with the test compound suspended in the vehicle containing 0.25% carboxymethylcellulose before half an hour of LPS exposure. BAL was performed 6 h after LPS exposure, total cell count and DLC was done and compared with control and the standard drug.

Sequence of human PDE4B enzyme (PDE4B2) (Q07343 1-564 isoform Q07343-2): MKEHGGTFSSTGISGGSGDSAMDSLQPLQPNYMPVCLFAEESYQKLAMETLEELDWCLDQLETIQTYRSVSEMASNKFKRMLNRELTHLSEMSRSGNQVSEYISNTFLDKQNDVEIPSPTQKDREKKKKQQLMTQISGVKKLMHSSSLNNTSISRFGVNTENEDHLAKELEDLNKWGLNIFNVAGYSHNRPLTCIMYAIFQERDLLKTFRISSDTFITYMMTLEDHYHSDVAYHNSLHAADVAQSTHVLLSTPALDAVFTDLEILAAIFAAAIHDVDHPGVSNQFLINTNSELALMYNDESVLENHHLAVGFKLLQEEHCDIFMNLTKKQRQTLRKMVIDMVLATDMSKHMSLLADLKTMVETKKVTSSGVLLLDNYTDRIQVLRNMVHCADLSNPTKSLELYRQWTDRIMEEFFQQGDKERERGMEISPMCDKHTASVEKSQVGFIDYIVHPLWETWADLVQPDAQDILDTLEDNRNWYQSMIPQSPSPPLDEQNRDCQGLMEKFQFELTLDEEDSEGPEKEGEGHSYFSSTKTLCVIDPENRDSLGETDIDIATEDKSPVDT

Row | Structure (SMILES) | inhibition at 0.1 µM (TNF-α [1]) [%] | further results
1 | COc1ccc(-c2nc(-c3cccc(C(=O)O)n3)cs2)c2c1oc1ccccc12 [Example 2, 6-(2-(4-Methoxydibenzo[b,d]furan-1-yl)-1,3-thiazol-4-yl)picolinic acid] | 26.1 | 
2 | COc1ccc(-c2nc(CCC(=O)Nc3c(Cl)cncc3Cl)cs2)c2c1oc1ccccc12 [Example 11, N-(3,5-Dichloropyridin-4-yl)-3-(2-(4-methoxydibenzo[b,d]furan-1-yl)-1,3-thiazol-4-yl)propanamide] |  | inhibition at 0.1 µM [2]: 32.8%; TNF-α Inhibition (%) (TNF-α [3]): 46.70%
3 | COc1ccc(-c2nc(C(=O)Nc3c(Cl)cncc3Cl)cs2)c2c1oc1ccccc12 [Example 13, N-(3,5-Dichloropyridin-4-yl)-2-(4-methoxydibenzo[b,d]furan-1-yl)-1,3-thiazole-4-carboxamide] | 26.1 | inhibition at 0.1 µM [2]: 70.3%; TNF-α Inhibition (%) (TNF-α [3]): 37.83%
4 | O=C(Nc1c(Cl)cncc1Cl)c1csc(-c2ccc(OC(F)F)c3oc4ccccc4c23)n1 [Example 14, N-(3,5-dichloropyridin-4-yl)-2-(4-(difluoromethoxy)dibenzo[b,d]furan-1-yl)-1,3-thiazole-4-carboxamide] | 14.5 | inhibition at 0.1 µM [2]: 42.3%; TNF-α Inhibition (%) (TNF-α [3]): 40.67%
5 | COc1ccc(-c2nc(C(N)=O)cs2)c2c1oc1ccccc12 [Example 25, 2-(4-Methoxydibenzo[b,d]furan-1-yl)-1,3-thiazole-4-carboxamide] | 35.5 | inhibition at 0.1 µM [2]: 15.4%
6 | COc1ccc(-c2nc(C(=O)NC3CCCC3)c(C)s2)c2c1oc1ccccc12 [Example 26, N-Cyclopentyl-2-(4-methoxydibenzo[b,d]furan-1-yl)-5-methyl-1,3-thiazole-4-carboxamide] | 21.9 | 
7 | COc1ccc(-c2nc(C(=O)NC3CCC(O)CC3)c(C)s2)c2c1oc1ccccc12 (stereo not shown) [Example 27, N-(4-Hydroxycyclohexyl)-2-(4-methoxydibenzo[b,d]furan-1-yl)-5-methyl-1,3-thiazole-4-carboxamide] | 82.7 | 
8 | COc1ccc(-c2nc(C(=O)Nc3c(Cl)cncc3Cl)c(C)s2)c2c1oc1ccccc12 [Example 28, N-(3,5-Dichloropyridin-4-yl)-2-(4-methoxydibenzo[b,d]furan-1-yl)-5-methyl-1,3-thiazole-4-carboxamide] | 0.88 | 
9 | CCNC(=O)c1nc(-c2ccc(OC)c3oc4ccccc4c23)sc1C [Example 29, N-Ethyl-2-(4-methoxydibenzo[b,d]furan-1-yl]-5-methyl-1,3-thiazole-4-carboxamide] | 18.4 | 
10 | COc1ccc(-c2nc(C(=O)NN3CCOCC3)cs2)c2c1oc1ccccc12 [Example 30, 2-(4-Methoxydibenzo[b,d]furan-1-yl)-N-morpholino-1,3-thiazole-4-carboxamide] | 21.9 | 
11 | COc1ccc(-c2nc(C(=O)NC3CCC(O)CC3)cs2)c2c1oc1ccccc12 (stereo not shown) [Example 31, N-(4-Hydroxycyclohexyl)-2-(4-methoxydibenzo[b,d]furan-1-yl)-1,3-thiazole-4-carboxamide] | 63.1 | 
12 | CS(=O)(=O)Nc1ccc2oc3c(OC(F)F)ccc(-c4nc(C(=O)Nc5c(Cl)cncc5Cl)cs4)c3c2c1 [Example 34] | 25.1 | 
13 | Cc1sc(-c2ccc(OC(F)F)c3oc4ccc(NS(C)(=O)=O)cc4c23)nc1C(=O)NC1CCC(O)CC1 (stereo not shown) [Example 35, 2-(4-(Difluoromethoxy)-8-(methylsulfonamido)dibenzo[b,d]furan-1-yl)-N-(4-hydroxycyclohexyl)-5-methyl-1,3thiazole-4-carboxamide] | 61.8 | LPS induced neutrophilia % inhibition (LPS induced neutrophilia; Dose 10 mg/kg): 19.29%
14 | CC(=O)Nc1ccc2oc3c(OC(F)F)ccc(-c4nc(C(=O)O)cs4)c3c2c1 [Example 36, 2-[8-(Acetylamino)-4-(difluoromethoxy)dibenzo[b,d]furan-1-yl]-1,3-thiazole-4-carboxylic acid] | 15.5 | 
15 | CONC(=O)c1nc(-c2ccc(OC(F)F)c3oc4ccc(NS(C)(=O)=O)cc4c23)sc1C [Example 37, 2-(4-(Difluoromethoxy)-8-(methylsulfonamido)dibenzo[b,d]furan-1-yl)-N-methoxy-5-methyl-1,3-thiazole-4-carboxamide] | 35.4 | 
16 | CC(=O)Nc1ccc2oc3c(OC(F)F)ccc(-c4nc(C(=O)NC5CCC(O)CC5)cs4)c3c2c1 (stereo not shown) [Example 38, 2-(8-Acetamido-4-(difluoromethoxy)dibenzo[b,d]furan-1-yl)-N-(4-hydroxycyclohexyl)-1,3-thiazole-4-carboxamide] | 83.4 | LPS induced neutrophilia % inhibition (LPS induced neutrophilia; Dose 5 mg/kg): 35.68%
17 | O=C(NC1CCC(O)CC1)c1csc(-c2ccc(OC(F)F)c3oc4ccccc4c23)n1 (stereo not shown) [Example 39, 2-((4-Difluoromethoxy)dibenzo[b,d]furan-1-yl)-N-(4-hydroxycyclohexyl)-1,3-thiazole-4-carboxamide] | 77.7 | LPS induced neutrophilia % inhibition (LPS induced neutrophilia; Dose 10 mg/kg): 57.98%
18 | O=C(NCC(F)(F)F)c1csc(-c2ccc(OC(F)F)c3oc4ccccc4c23)n1 [Example 40, 2-((4-Difluoromethoxy)dibenzo[b,d]furan-1-yl)-N-(2,2,2-trifluoroethyl)-1,3-thiazole-4-carboxamide] | 26.7 | 
19 | CONC(=O)c1csc(-c2ccc(OC(F)F)c3oc4ccccc4c23)n1 [Example 42, 2-((4-Difluoromethoxy)dibenzo[b,d]furan-1-yl)-N-methoxy-1,3-thiazole-4-carboxamide] | 8.5 | 
20 | O=C(NC1CCC(O)CC1)c1csc(-c2ccc(OC(F)F)c3oc4ccc(C(F)(F)F)cc4c23)n1 (stereo not shown) [Example 44, 2-(4-(Difluoromethoxy)-8-(trifluoromethyl)dibenzo[b,d]furan-1-yl)-N-(4-hydroxycyclohexyl)-1,3-thiazole-4-carboxamide] | 17.2 | 
21 | CS(=O)(=O)Nc1ccc2oc3c(OC(F)F)ccc(-c4nc(C(=O)NC5CCC(O)CC5)cs4)c3c2c1 (stereo not shown) [Example 46, 2-(4-(Difluoromethoxy)-(methylsulfonamido)dibenzo[b,d]furan-1-yl)-N-(4-hydroxycyclohexyl)-1,3-thiazole-4-carboxamide] | 78.6 | 
22 | CS(=O)(=O)Nc1ccc2oc3c(OC(F)F)ccc(-c4nc(C(=O)N[C@H]5CC[C@H](O)CC5)co4)c3c2c1 [Example 50, 2-(4-(Difluoromethoxy)-8-(methylsulfonamido)dibenzo[b,d]furan-1-yl)-N-(4-hydroxycyclohexyl)-1,3-oxazole-4-carboxamide] |  | TNF-α Inhibition (%) (TNF-α [3]): 13.15%
